Laboratory results: patent publication US20230063321A1, “Methods for Treating Inflammatory Bowel Diseases with alpha4beta7 Integrin Antagonists” (Protagonist Therapeutics, Inc., priority 2020, published 2023)
“And” between values parts separate entries of the source, which are not always exact repeats. Equal entries are not always repeated. Numbered stars: 1 amine (or outer) side, 2 acyl side, 3 side chain; on linkers, the order of the positions; unused ones are H or OH. Bridge positions count the residues as written; N and C are the ends. Square brackets hold non-standard residues; d marks the D form. Peptide text beside a SMILES is read from it. I, II: the chains in the order shown. ξ: configuration not given here. Phe(4-tBu) = CC(C)(C)c1ccc(C[C@H](N)C(=O)O)cc1; Diglycolyl = O=C(COCC(=O)[*:2])[*:1]; NMeR = CN[C@@H](CCCNC(=N)N)C(=O)O; β3hE = N[C@@H](CCC(=O)O)CC(=O)O; Thr(3ξ) = CC(O)[C@H](N)C(=O)O; X1 = O=C(c1ccccc1C[*:2])[*:1]; Pen = CC(C)(S)[C@H](N)C(=O)O

Key:
α4β7 integrin = target: T1, α4β7 integrin (Homo sapiens, UniProt P13612+P26010); experiment: MAdCAM1-mediated cytokine production by CD4+ T-cells (MSD/luminex multiplex); type: cell-based; settings: IFNγ, IL-5, IL-6, IL-10, IL-13, GM-CSF, TNFα; three donors
T1 construct: endogenous in cells; host or cells: primary human CD4+ T cells enriched from PBMCs of healthy donors
Method: PBMCs were purified from three healthy human donors (Donors 7, 10, and 11), and enrichment of CD4+ T cells was performed.

[1] = target: T2, α4β7 integrin on memory CD4+ T cells (Homo sapiens, UniProt P13612+P26010); experiment: Study 1 blood α4β7 receptor occupancy and receptor expression; type: in vivo; settings: for Average RE (%) / Average RO (%) / REmax (%) / ROmax (%) / Tmax for RE / Tmax for RO: Mean ± SD
T2 construct: the amount of α4β7 expression on the cell surface of circulating lymphocytes; endogenous in cells; host or cells: heparinized whole blood of healthy volunteers
Method: After staining is completed, the samples are treated with a red blood cell lysis and fixation buffer, washed and acquired on a flow cytometer. To quantify receptor occupancy on α4β7 expressing memory CD4 T cells, the […] fluorescence intensity (MFI) of Alexa647-labelled peptide within the vedolizumab+ memory CD4+ T cells was used. Receptor occupancy was calculated according to the following formula: [Percent RO]=(1−([Unblocked]−[Blocked])/([Baseline Unblocked]−[Baseline Blocked]))×100.
Expression of α4β7 is defined by MFI of vedolizumab within the memory CD4+ T cells from the unblocked samples. Receptor expression (RE) was calculated as percent change of MFI from baseline for the vedolizumab stain.

[2] = Oral bioavailability in mice; settings: mouse, in vivo
[3] = 300 mg Fasted once daily, Day 1
[4] = 300 mg Fasted once daily, Day 14
[5] = 1000 mg Fasted once daily, Day 1
[6] = 1000 mg Fasted once daily, Day 14
[7] = single dose 1400 mg, listed as COMPOUND A

T2 sequence (P13612 34-1032): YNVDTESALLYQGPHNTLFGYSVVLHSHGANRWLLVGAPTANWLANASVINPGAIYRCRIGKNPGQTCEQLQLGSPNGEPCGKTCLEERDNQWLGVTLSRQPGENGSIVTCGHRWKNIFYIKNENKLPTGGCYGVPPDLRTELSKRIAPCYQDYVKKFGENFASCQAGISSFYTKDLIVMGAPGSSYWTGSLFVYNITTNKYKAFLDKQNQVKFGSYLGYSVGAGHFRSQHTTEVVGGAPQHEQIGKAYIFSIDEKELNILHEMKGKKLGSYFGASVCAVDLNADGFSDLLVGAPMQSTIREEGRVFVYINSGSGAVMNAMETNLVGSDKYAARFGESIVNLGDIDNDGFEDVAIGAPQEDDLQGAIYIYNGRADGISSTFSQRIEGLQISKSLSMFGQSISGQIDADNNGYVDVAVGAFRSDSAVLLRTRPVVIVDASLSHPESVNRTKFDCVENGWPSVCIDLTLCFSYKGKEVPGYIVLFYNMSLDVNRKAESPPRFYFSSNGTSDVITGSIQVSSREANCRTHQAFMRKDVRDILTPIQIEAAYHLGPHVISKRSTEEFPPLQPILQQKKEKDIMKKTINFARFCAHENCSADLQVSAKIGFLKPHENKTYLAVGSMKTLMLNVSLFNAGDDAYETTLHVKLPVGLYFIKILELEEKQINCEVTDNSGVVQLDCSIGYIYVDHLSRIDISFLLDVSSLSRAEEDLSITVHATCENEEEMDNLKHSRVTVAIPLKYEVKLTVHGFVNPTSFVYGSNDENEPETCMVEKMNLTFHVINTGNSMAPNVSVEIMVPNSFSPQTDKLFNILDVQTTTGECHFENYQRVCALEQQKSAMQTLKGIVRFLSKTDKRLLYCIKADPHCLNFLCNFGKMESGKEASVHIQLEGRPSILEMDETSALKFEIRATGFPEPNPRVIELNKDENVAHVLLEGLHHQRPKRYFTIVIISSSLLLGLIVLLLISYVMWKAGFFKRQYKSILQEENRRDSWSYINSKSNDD
T2 sequence (P26010 20-798): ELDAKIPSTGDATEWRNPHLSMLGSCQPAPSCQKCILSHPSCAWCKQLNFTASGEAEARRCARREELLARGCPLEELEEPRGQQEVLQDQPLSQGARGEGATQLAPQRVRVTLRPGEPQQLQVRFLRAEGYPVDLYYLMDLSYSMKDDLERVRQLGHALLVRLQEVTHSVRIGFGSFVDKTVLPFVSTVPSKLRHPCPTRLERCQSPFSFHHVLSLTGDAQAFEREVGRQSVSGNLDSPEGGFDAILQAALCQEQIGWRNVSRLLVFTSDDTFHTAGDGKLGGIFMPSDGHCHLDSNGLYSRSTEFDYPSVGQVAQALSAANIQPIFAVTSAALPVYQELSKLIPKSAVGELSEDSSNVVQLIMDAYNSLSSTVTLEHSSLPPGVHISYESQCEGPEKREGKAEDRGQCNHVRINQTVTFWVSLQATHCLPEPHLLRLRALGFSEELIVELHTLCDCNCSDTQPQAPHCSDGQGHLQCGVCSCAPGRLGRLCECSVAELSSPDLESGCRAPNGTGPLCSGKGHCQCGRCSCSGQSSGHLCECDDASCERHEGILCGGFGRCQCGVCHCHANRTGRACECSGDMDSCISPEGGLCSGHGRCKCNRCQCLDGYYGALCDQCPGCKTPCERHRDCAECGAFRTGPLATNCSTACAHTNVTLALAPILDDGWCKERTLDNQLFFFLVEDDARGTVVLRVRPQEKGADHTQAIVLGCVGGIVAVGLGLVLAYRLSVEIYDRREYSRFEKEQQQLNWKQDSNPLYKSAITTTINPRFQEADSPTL
T1 sequence (P13612 34-1032): as the sequence (P13612 34-1032) above
T1 sequence (P26010 20-798): as the sequence (P26010 20-798) above

SMILES: CC(C)C[C@@H]1NC(=O)[C@H](C(C)O)NC(=O)[C@H](CC(=O)O)NC(=O)[C@H](CO)NC(=O)[C@H](CCCNC(=N)N)N(C)C(=O)c2ccccc2CSC(C)(C)[C@@H](C(=O)N[C@@H](Cc2ccc(C(C)(C)C)cc2)C(=O)N[C@@H](CCC(=O)O)CC(=O)N[C@H](CCCCNC(=O)COCC(=O)NCCCC[C@@H](NC(=O)C[C@H](CCC(=O)O)NC(=O)[C@H](Cc2ccc(C(C)(C)C)cc2)NC(=O)[C@H]2NC(=O)[C@H](CC(C)C)NC(=O)[C@H](C(C)O)NC(=O)[C@H](CC(=O)O)NC(=O)[C@H](CO)NC(=O)[C@H](CCCNC(=N)N)N(C)C(=O)c3ccccc3CSC2(C)C)C(=O)O)C(=O)O)NC1=O (stereo partly drawn) [Compound A, ((2-Benzyl)-(N-Me-R)-Ser-Asp-Thr-Leu-Pen-(Phe(4-tBlu))-(β-homo-Glu)-(D-Lys)-OH)2 (SEQ ID NO: 5) and linker-DIG diglycolic acid] (I: [NMeR]SD[Thr(3ξ)]L[Pen][Phe(4-tBu)][β3hE][dK]-OH / II: [NMeR]SD[Thr(3ξ)]L[Pen][Phe(4-tBu)][β3hE][dK]-OH; linker I:9-II:9 via Diglycolyl; linker I:N-I:6, II:N-II:6 via X1)
- inhibition of MAdCAM1-mediated cytokine production (α4β7 integrin): Concentration-dependent and full inhibition
- Average RE (%) ([1]; 100 mg Fed once daily, Day 1): −12.3 ± 6.6%
- Average RO (%) ([1]; 100 mg Fed once daily, Day 1): 30.0 ± 7.7%
- REmax (%) ([1]; 100 mg Fed once daily, Day 1): −17.4 ± 7.5%
- ROmax (%) ([1]; 100 mg Fed once daily, Day 1): 46.8 ± 11.2%
- Tmax for RE ([1]; 100 mg Fed once daily, Day 1): 14.0 ± 4.2 h
- Tmax for RO ([1]; 100 mg Fed once daily, Day 1): 6.0 ± 3.7 h
- Average RE (%) ([1]; 100 mg Fed once daily, Day 14): −23.8 ± 6.9%
- Average RO (%) ([1]; 100 mg Fed once daily, Day 14): 40.5 ± 7.5%
- REmax (%) ([1]; 100 mg Fed once daily, Day 14): −29.1 ± 7.2%
- ROmax (%) ([1]; 100 mg Fed once daily, Day 14): 55.5 ± 8.82%
- Tmax for RE ([1]; 100 mg Fed once daily, Day 14): 12.0 ± 0 h
- Tmax for RO ([1]; 100 mg Fed once daily, Day 14): 5.0 ± 2.8 h
- Average RE (%) [1, 3]: −25.1 ± 4.4%
- Average RO (%) [1, 3]: 53.9 ± 6.5%
- REmax (%) [1, 3]: −33.1 ± 5.2%
- ROmax (%) [1, 3]: 77.8 ± 5.13%
- Tmax for RE [1, 3]: 12.0 ± 0 h
- Tmax for RO [1, 3]: 4.0 ± 0 h
- ROmax (%) ([1]; 300 mg Fasted once daily, Day 1, listed as COMPOUND A): 77.8%
- Average RE (%) [1, 4]: −37.7 ± 5.2%
- Average RO (%) [1, 4]: 61.1 ± 6.0%
- REmax (%) [1, 4]: −41.5 ± 5.9%
- ROmax (%) [1, 4]: 79.7 ± 5.40%
- Tmax for RE [1, 4]: 6.0 ± 3.7 h
- Tmax for RO [1, 4]: 4.0 ± 0 h
- ROmax (%) ([1]; 300 mg Fasted once daily, Day 14, listed as COMPOUND A): 79.7%
- Average RE (%) ([1]; 300 mg Fed once daily, Day 1): −20.1 ± 3.4%
- Average RO (%) ([1]; 300 mg Fed once daily, Day 1): 47.2 ± 7.5%
- REmax (%) ([1]; 300 mg Fed once daily, Day 1): −28.4 ± 4.4%
- ROmax (%) ([1]; 300 mg Fed once daily, Day 1): 70.4 ± 7.39%
- Tmax for RE ([1]; 300 mg Fed once daily, Day 1): 12.0 ± 0 h
- Tmax for RO ([1]; 300 mg Fed once daily, Day 1): 4.0 ± 0 h
- Average RE (%) ([1]; 300 mg Fed once daily, Day 14): −31.7 ± 4.0%
- Average RO (%) ([1]; 300 mg Fed once daily, Day 14): 57.8 ± 3.9%
- REmax (%) ([1]; 300 mg Fed once daily, Day 14): −37.2 ± 4.7%
- ROmax (%) ([1]; 300 mg Fed once daily, Day 14): 78.9 ± 5.89%
- Tmax for RE ([1]; 300 mg Fed once daily, Day 14): 12.0 ± 0 h
- Tmax for RO ([1]; 300 mg Fed once daily, Day 14): 4.0 ± 0 h
- peak percent receptor occupancy ([1]; 300 mg within 30 minutes following a high fat meal): 61.4%
- Average RE (%) ([1]; 450 mg BID, Day 1): −33.4 ± 4.4%
- Average RO (%) ([1]; 450 mg BID, Day 1): 76.4 ± 8.4%
- REmax (%) ([1]; 450 mg BID, Day 1): −42.6 ± 4.6%
- ROmax (%) ([1]; 450 mg BID, Day 1): 86.5% and 86.5 ± 4.11%
- Tmax for RE ([1]; 450 mg BID, Day 1): 19 ± 4.7 h
- Tmax for RO ([1]; 450 mg BID, Day 1): 16 ± 6.2 h
- Average RE (%) ([1]; 450 mg BID, Day 5, N = 7): −44.3 ± 4.2%
- REmax (%) ([1]; 450 mg BID, Day 5, N = 7): −47.3 ± 4.3%
- ROmax (%) ([1]; 450 mg BID, Day 5, N = 7): 91.9% and 91.9 ± 3.42%
- Tmax for RE ([1]; 450 mg BID, Day 5, N = 7): 5.6 ± 5.1 h
- Tmax for RO ([1]; 450 mg BID, Day 5, N = 7): 2.3 ± 1.6 h
- Average RO (%) ([1]; 450 mg BID, Day 5, N = 7, 24-hour AUEC): 85.3% and 85.3 ± 7.3%
- receptor occupancy at 450 mg ([1]; 450 mg twice daily, read-out: trough receptor occupancy): ~79.2%
- Average RE (%) ([1]; 900 mg QD, Day 1): −38.3 ± 4.9%
- Average RO (%) ([1]; 900 mg QD, Day 1): 80.7 ± 6.7%
- REmax (%) ([1]; 900 mg QD, Day 1): −47.3 ± 5.0%
- ROmax (%) ([1]; 900 mg QD, Day 1): 94.5% and 94.5 ± 2.61%
- Tmax for RE ([1]; 900 mg QD, Day 1): 13 ± 1.4 h
- Tmax for RO ([1]; 900 mg QD, Day 1): 5.4 ± 3.9 h
- Average RE (%) ([1]; 900 mg QD, Day 5): −44.6 ± 6.3%
- REmax (%) ([1]; 900 mg QD, Day 5): −50.1 ± 5.3%
- ROmax (%) ([1]; 900 mg QD, Day 5): 94.9% and 94.9 ± 1.97%
- Tmax for RE ([1]; 900 mg QD, Day 5): 11 ± 3.9 h
- Tmax for RO ([1]; 900 mg QD, Day 5): 3.3 ± 6.2 h
- Average RO (%) ([1]; 900 mg QD, Day 5, 24-hour AUEC): 79.2% and 79.2 ± 8.7%
- Average RE (%) [1, 5]: −33.9 ± 3.4%
- Average RO (%) [1, 5]: 77.1 ± 3.7%
- REmax (%) [1, 5]: −43.1 ± 4.0%
- ROmax (%) [1, 5]: 91.3 ± 2.93%
- Tmax for RE [1, 5]: 12.0 ± 0 h
- Tmax for RO [1, 5]: 7.0 ± 4.1 h
- ROmax (%) ([1]; 1000 mg Fasted once daily, Day 1, listed as COMPOUND A): 91.3%
- Average RE (%) [1, 6]: −51.3 ± 3.1%
- Average RO (%) [1, 6]: 81.5 ± 15.5%
- REmax (%) [1, 6]: −57.3 ± 2.9%
- ROmax (%) [1, 6]: 95.6 ± 0.97%
- Tmax for RE [1, 6]: 4.0 ± 0 h
- Tmax for RO [1, 6]: 4.0 ± 0 h
- ROmax (%) ([1]; 1000 mg Fasted once daily, Day 14, listed as COMPOUND A): 95.6%
- mean peak receptor occupancy ([1]; doses of 900 mg): greater than 90%
- trough receptor occupancy ([1]; once-daily 100 mg): approximately 25.4%
- trough receptor occupancy ([1]; once-daily 1000 mg): ~78.6%
- receptor occupancy at trough ([1]; once-daily or twice-daily dosing): greater than 80%
- Average RE (%) ([1]; single dose 100 mg): −21.6 ± 7.1%
- Average RO (%) ([1]; single dose 100 mg): 38.9 ± 12.5%
- ROmax (%) ([1]; single dose 100 mg): 61.8 ± 10.8%
- Tmax for RE ([1]; single dose 100 mg): 11 ± 6.0 h
- Tmax for RO ([1]; single dose 100 mg): 3.8 ± 2.2 h
- REmax (%) ([1]; single dose 100 mg, change from baseline): −28.2 ± 7.97%
- REmax (%) ([1]; single dose 100 mg, change from baseline, listed as COMPOUND A): −28.2%
- ROmax (%) ([1]; single dose 100 mg, listed as COMPOUND A): 61.8%
- Average RE (%) ([1]; single dose 300 mg): −32.4 ± 3.0%
- Average RO (%) ([1]; single dose 300 mg): 64.3 ± 6.6%
- REmax (%) ([1]; single dose 300 mg): −43.6 ± 3.69%
- ROmax (%) ([1]; single dose 300 mg): 83.4 ± 7.92%
- Tmax for RE ([1]; single dose 300 mg): 12 ± 0 h
- Tmax for RO ([1]; single dose 300 mg): 4.6 ± 2.3 h
- ROmax (%) ([1]; single dose 300 mg, listed as COMPOUND A): 83.4%
- Average RE (%) ([1]; single dose 1000 mg): −36.3 ± 2.9%
- Average RO (%) ([1]; single dose 1000 mg): 81.0 ± 3.5%
- REmax (%) ([1]; single dose 1000 mg): −45.4 ± 3.70%
- ROmax (%) ([1]; single dose 1000 mg): 93.6 ± 2.04%
- Tmax for RE ([1]; single dose 1000 mg): 12 ± 0 h
- Tmax for RO ([1]; single dose 1000 mg): 4.1 ± 1.9 h
- Average RE (%) ([1]; single dose 1400 mg): −40.3 ± 6.9%
- Average RO (%) ([1]; single dose 1400 mg): 86.0 ± 6.8%
- REmax (%) ([1]; single dose 1400 mg): −49.0 ± 8.20%
- ROmax (%) ([1]; single dose 1400 mg): 94.8 ± 3.55%
- Tmax for RE ([1]; single dose 1400 mg): 12 ± 0 h
- Tmax for RO ([1]; single dose 1400 mg): 4.6 ± 3.2 h
- REmax (%) [1, 7]: −49.0%
- ROmax (%) [1, 7]: 94.8%
- bioavailability [2]: < 1%
